Source: patent US4450269A, “Mono-5-substituted-3-chloro-4H-1,2,6-thiadiazin-4-one antifungal agents” (FMC Corporation, priority 1980, dated 1984)

Legend:
Alternaria solani = test: Mycelial growth test; type: cell-based; details: Alternaria solani, 72 h, AS, read-out: Percent Fungus Growth Inhibition
Cladosporium cucumerinum = test: Spore germination test; type: cell-based; details: CC, 48 hours
Procedure, shortened: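 Compound in acetone mixed into water agar at 40, 10, 2.5 and 1 ppm; plates seeded with spore suspension and incubated 48 hours at 24 °C. Percentage germinated spores counted and converted into a germination rating.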

SMILES: O=c1c(Cl)nsnc1Oc1c(Cl)cccc1Cl [Compound 18, 3-chloro-5-(2,6-dichlorophenoxy)-4H--1,2,6-thiadiazin-4-one]
- inhibition at 5 ppm (Alternaria solani): 69%
- inhibition at 10 ppm (Alternaria solani): 90%
- inhibition at 20 ppm (Alternaria solani): 90%
- inhibition at 40 ppm (Alternaria solani): 84%
- Spore Germination Rating (Cladosporium cucumerinum; 1.0 ppm): 4 (80-100)
- Spore Germination Rating (Cladosporium cucumerinum; 2.5 ppm): 0 (0-10)
- Spore Germination Rating (Cladosporium cucumerinum; 10 ppm): 0 (0-10)
- Spore Germination Rating (Cladosporium cucumerinum; 40 ppm): 0 (0-10)

SMILES: O=c1c(Cl)nsnc1Oc1cccc(Cl)c1Cl [Compound 19, 3-chloro-5-(2,3-dichlorophenoxy)-4H--1,2,6-thiadiazin-4-one]
- inhibition at 5 ppm (Alternaria solani): 62%
- inhibition at 10 ppm (Alternaria solani): 62%
- inhibition at 20 ppm (Alternaria solani): 90%
- inhibition at 40 ppm (Alternaria solani): 100%
- Spore Germination Rating (Cladosporium cucumerinum; 1.0 ppm): 2 (40-60)
- Spore Germination Rating (Cladosporium cucumerinum; 2.5 ppm): 0 (0-10)
- Spore Germination Rating (Cladosporium cucumerinum; 10 ppm): 0 (0-10)
- Spore Germination Rating (Cladosporium cucumerinum; 40 ppm): 0 (0-10)

SMILES: O=c1c(Cl)nsnc1Oc1cc(Cl)cc(Cl)c1 [Compound 20, 3-chloro-5-(3,5-dichlorophenoxy)-4H--1,2,6-thiadiazin-4-one]
- inhibition at 5 ppm (Alternaria solani): 59%
- inhibition at 10 ppm (Alternaria solani): 59%
- inhibition at 20 ppm (Alternaria solani): 59%
- inhibition at 40 ppm (Alternaria solani): 83%
- Spore Germination Rating (Cladosporium cucumerinum; 1.0 ppm): 0 (0-10)
- Spore Germination Rating (Cladosporium cucumerinum; 2.5 ppm): 0 (0-10)
- Spore Germination Rating (Cladosporium cucumerinum; 10 ppm): 0 (0-10)
- Spore Germination Rating (Cladosporium cucumerinum; 40 ppm): 0 (0-10)

SMILES: Cc1cccc(Oc2nsnc(Cl)c2=O)c1 [Compound 21, 3-chloro-5-(3-methylphenoxy)-4H--1,2,6-thiadiazin-4-one]
- inhibition at 5 ppm (Alternaria solani): 75%
- inhibition at 10 ppm (Alternaria solani): 63%
- inhibition at 20 ppm (Alternaria solani): 75%
- inhibition at 40 ppm (Alternaria solani): 100%
- Spore Germination Rating (Cladosporium cucumerinum; 1.0 ppm): 1 (10-40)
- Spore Germination Rating (Cladosporium cucumerinum; 2.5 ppm): 0 (0-10)
- Spore Germination Rating (Cladosporium cucumerinum; 10 ppm): 0 (0-10)
- Spore Germination Rating (Cladosporium cucumerinum; 40 ppm): 0 (0-10)

SMILES: Cc1ccccc1Oc1nsnc(Cl)c1=O [Compound 22, 3-chloro-5-(2-methylphenoxy)-4H--1,2,6-thiadiazin-4-one]
- inhibition at 5 ppm (Alternaria solani): 63%
- inhibition at 10 ppm (Alternaria solani): 88%
- inhibition at 20 ppm (Alternaria solani): 100%
- inhibition at 40 ppm (Alternaria solani): 100%
- Spore Germination Rating (Cladosporium cucumerinum; 1.0 ppm): 0 (0-10)
- Spore Germination Rating (Cladosporium cucumerinum; 2.5 ppm): 0 (0-10)
- Spore Germination Rating (Cladosporium cucumerinum; 10 ppm): 0 (0-10)
- Spore Germination Rating (Cladosporium cucumerinum; 40 ppm): 0 (0-10)

SMILES: Cc1ccc(Oc2nsnc(Cl)c2=O)c(C)c1 [Compound 23, 3-chloro-5-(2,4-dimethylphenoxy)-4H--1,2,6-thiadiazin-4-one]
- inhibition at 5 ppm (Alternaria solani): 63%
- inhibition at 10 ppm (Alternaria solani): 81%
- inhibition at 20 ppm (Alternaria solani): 100%
- inhibition at 40 ppm (Alternaria solani): 100%
- Spore Germination Rating (Cladosporium cucumerinum; 1.0 ppm): 4 (80-100)
- Spore Germination Rating (Cladosporium cucumerinum; 2.5 ppm): 1 (10-40)
- Spore Germination Rating (Cladosporium cucumerinum; 10 ppm): 0 (0-10)
- Spore Germination Rating (Cladosporium cucumerinum; 40 ppm): 0 (0-10)

SMILES: Cc1cccc(C)c1Oc1nsnc(Cl)c1=O [Compound 24, 3-chloro-5-(2,6-dimethylphenoxy)-4H--1,2,6-thiadiazin-4-one]
- inhibition at 5 ppm (Alternaria solani): 100%
- inhibition at 10 ppm (Alternaria solani): 88%
- inhibition at 20 ppm (Alternaria solani): 100%
- inhibition at 40 ppm (Alternaria solani): 100%
- Spore Germination Rating (Cladosporium cucumerinum; 1.0 ppm): 0 (0-10)
- Spore Germination Rating (Cladosporium cucumerinum; 2.5 ppm): 0 (0-10)
- Spore Germination Rating (Cladosporium cucumerinum; 10 ppm): 0 (0-10)
- Spore Germination Rating (Cladosporium cucumerinum; 40 ppm): 0 (0-10)

SMILES: Cc1cc(C)cc(Oc2nsnc(Cl)c2=O)c1 [Compound 25, 3-chloro-5-(3,5-dimethylphenoxy)-4H--1,2,6-thiadiazin-4-one]
- inhibition at 5 ppm (Alternaria solani): 69%
- inhibition at 10 ppm (Alternaria solani): 75%
- inhibition at 20 ppm (Alternaria solani): 81%
- inhibition at 40 ppm (Alternaria solani): 88%
- Spore Germination Rating (Cladosporium cucumerinum; 1.0 ppm): 0 (0-10)
- Spore Germination Rating (Cladosporium cucumerinum; 2.5 ppm): 0 (0-10)
- Spore Germination Rating (Cladosporium cucumerinum; 10 ppm): 0 (0-10)
- Spore Germination Rating (Cladosporium cucumerinum; 40 ppm): 0 (0-10)

SMILES: Nc1ccc(Oc2nsnc(Cl)c2=O)cc1 [Compound 26, 5-(4-aminophenoxy)-3-chloro-4H--1,2,6-thiadiazin-4-one]
- inhibition at 5 ppm (Alternaria solani): 60%
- inhibition at 10 ppm (Alternaria solani): 80%
- inhibition at 20 ppm (Alternaria solani): 100%
- inhibition at 40 ppm (Alternaria solani): 100%
- Spore Germination Rating (Cladosporium cucumerinum; 1.0 ppm): 1 (10-40)
- Spore Germination Rating (Cladosporium cucumerinum; 2.5 ppm): 0 (0-10)
- Spore Germination Rating (Cladosporium cucumerinum; 10 ppm): 0 (0-10)
- Spore Germination Rating (Cladosporium cucumerinum; 40 ppm): 0 (0-10)

SMILES: CNC(=O)Nc1ccc(Oc2nsnc(Cl)c2=O)cc1 [Compound 28, 3-chloro-5-[4-(3-methylureido)-phenoxy]-4H--1,2,6-thiadiazin-4-one]
- inhibition at 5 ppm (Alternaria solani): 40%
- inhibition at 10 ppm (Alternaria solani): 47%
- inhibition at 20 ppm (Alternaria solani): 50%
- inhibition at 40 ppm (Alternaria solani): 70%
- Spore Germination Rating (Cladosporium cucumerinum; 1.0 ppm): 2 (40-60)
- Spore Germination Rating (Cladosporium cucumerinum; 2.5 ppm): 2 (40-60)
- Spore Germination Rating (Cladosporium cucumerinum; 10 ppm): 1 (10-40)
- Spore Germination Rating (Cladosporium cucumerinum; 40 ppm): 0 (0-10)

SMILES: O=C(Nc1ccccc1)Nc1ccc(Oc2nsnc(Cl)c2=O)cc1 [Compound 29, 3-chloro-5-[4-(3-phenylureido)-phenoxy]-4H--1,2,6-thiadiazin-4-one]
- inhibition at 5 ppm (Alternaria solani): 47%
- inhibition at 10 ppm (Alternaria solani): 30%
- inhibition at 20 ppm (Alternaria solani): 37%
- inhibition at 40 ppm (Alternaria solani): 47%
- Spore Germination Rating (Cladosporium cucumerinum; 1.0 ppm): 2 (40-60)
- Spore Germination Rating (Cladosporium cucumerinum; 2.5 ppm): 2 (40-60)
- Spore Germination Rating (Cladosporium cucumerinum; 10 ppm): 2 (40-60)
- Spore Germination Rating (Cladosporium cucumerinum; 40 ppm): 1 (10-40)

SMILES: O=c1c(Cl)nsnc1Oc1c(Cl)cc(Cl)cc1Cl [Compound 30, 3-chloro-5-(2,4,6-trichlorophenoxy)-4H--1,2,6-thiadiazin-4-one]
- inhibition at 5 ppm (Alternaria solani): 29%
- inhibition at 10 ppm (Alternaria solani): 67%
- inhibition at 20 ppm (Alternaria solani): 81%
- inhibition at 40 ppm (Alternaria solani): 90%
- Spore Germination Rating (Cladosporium cucumerinum; 1.0 ppm): 0 (0-10)
- Spore Germination Rating (Cladosporium cucumerinum; 2.5 ppm): 0 (0-10)
- Spore Germination Rating (Cladosporium cucumerinum; 10 ppm): 0 (0-10)
- Spore Germination Rating (Cladosporium cucumerinum; 40 ppm): 0 (0-10)

SMILES: O=c1c(Cl)nsnc1Oc1c(Cl)c(Cl)c(Cl)c(Cl)c1Cl [Compound 31, 3-chloro-5-(pentachlorophenoxy)-4H--1,2,6-thiadiazine-4-one]
- inhibition at 5 ppm (Alternaria solani): 48%
- inhibition at 10 ppm (Alternaria solani): 60%
- inhibition at 20 ppm (Alternaria solani): 48%
- inhibition at 40 ppm (Alternaria solani): 67%
- Spore Germination Rating (Cladosporium cucumerinum; 1.0 ppm): 0 (0-10)
- Spore Germination Rating (Cladosporium cucumerinum; 2.5 ppm): 0 (0-10)
- Spore Germination Rating (Cladosporium cucumerinum; 10 ppm): 0 (0-10)
- Spore Germination Rating (Cladosporium cucumerinum; 40 ppm): 0 (0-10)

SMILES: O=c1c(Cl)nsnc1Oc1cccc2ccccc12 [Compound 32, 3-chloro-5(1-naphthoxy)-4H-1,2,6-thiadiazin-4-one]
- inhibition at 5 ppm (Alternaria solani): 58%
- inhibition at 10 ppm (Alternaria solani): 58%
- inhibition at 20 ppm (Alternaria solani): 88%
- inhibition at 40 ppm (Alternaria solani): 92%
- Spore Germination Rating (Cladosporium cucumerinum; 1.0 ppm): 0 (0-10)
- Spore Germination Rating (Cladosporium cucumerinum; 2.5 ppm): 0 (0-10)
- Spore Germination Rating (Cladosporium cucumerinum; 10 ppm): 0 (0-10)
- Spore Germination Rating (Cladosporium cucumerinum; 40 ppm): 0 (0-10)

SMILES: O=c1c(Cl)nsnc1Oc1ccccc1Br [Compound 34, 3-chloro-5-(2-bromophenoxy)-4H-1,2,6,-thiadiazin-4-one]
- inhibition at 5 ppm (Alternaria solani): 100%
- inhibition at 10 ppm (Alternaria solani): 100%
- inhibition at 20 ppm (Alternaria solani): 100%
- inhibition at 40 ppm (Alternaria solani): 100%
- Spore Germination Rating (Cladosporium cucumerinum; 1.0 ppm): 1 (10-40)
- Spore Germination Rating (Cladosporium cucumerinum; 2.5 ppm): 0 (0-10)
- Spore Germination Rating (Cladosporium cucumerinum; 10 ppm): 0 (0-10)
- Spore Germination Rating (Cladosporium cucumerinum; 40 ppm): 0 (0-10)

SMILES: O=C(Nc1ccccc1)Oc1ccc(Oc2nsnc(Cl)c2=O)cc1 [Compound 37, 3-chloro-5-[4-(phenylaminocarbonyloxy)phenoxy]-4H-1,2,6,-thiadiazin-4-one]
- inhibition at 5 ppm (Alternaria solani): 46%
- inhibition at 10 ppm (Alternaria solani): 50%
- inhibition at 20 ppm (Alternaria solani): 50%
- inhibition at 40 ppm (Alternaria solani): 54%
- Spore Germination Rating (Cladosporium cucumerinum; 1.0 ppm): 0 (0-10)
- Spore Germination Rating (Cladosporium cucumerinum; 2.5 ppm): 1 (10-40)
- Spore Germination Rating (Cladosporium cucumerinum; 10 ppm): 0 (0-10)
- Spore Germination Rating (Cladosporium cucumerinum; 40 ppm): 0 (0-10)

SMILES: O=C(OCc1ccccc1)Oc1ccc(Oc2nsnc(Cl)c2=O)cc1 [Compound 38, 3-chloro-5-[4-(phenylmethoxycarbonyloxy)phenoxyl]-4H-1,2,6-thiadiazin-4-one]
- inhibition at 5 ppm (Alternaria solani): 5%
- inhibition at 10 ppm (Alternaria solani): 48%
- inhibition at 20 ppm (Alternaria solani): 33%
- inhibition at 40 ppm (Alternaria solani): 90%
- Spore Germination Rating (Cladosporium cucumerinum; 1.0 ppm): 4 (80-100)
- Spore Germination Rating (Cladosporium cucumerinum; 2.5 ppm): 4 (80-100)
- Spore Germination Rating (Cladosporium cucumerinum; 10 ppm): 3 (60-80)
- Spore Germination Rating (Cladosporium cucumerinum; 40 ppm): 3 (60-80)

SMILES: CSc1ccc(Oc2nsnc(Cl)c2=O)cc1 [Compound 39, 3-chloro-5-[(4-methylthio)phenoxy]-4H-1,2,6,-thiadiazin-4-one]
- inhibition at 5 ppm (Alternaria solani): 42%
- inhibition at 10 ppm (Alternaria solani): 33%
- inhibition at 20 ppm (Alternaria solani): 42%
- inhibition at 40 ppm (Alternaria solani): 54%
- Spore Germination Rating (Cladosporium cucumerinum; 1.0 ppm): 1 (10-40)
- Spore Germination Rating (Cladosporium cucumerinum; 2.5 ppm): 0 (0-10)
- Spore Germination Rating (Cladosporium cucumerinum; 10 ppm): 0 (0-10)
- Spore Germination Rating (Cladosporium cucumerinum; 40 ppm): 0 (0-10)

SMILES: C[S+]([O-])c1ccc(Oc2nsnc(Cl)c2=O)cc1 (stereo not shown) [Compound 40, 3-chloro-5-[(4-methylsulfinyl)phenoxy]-4H-1,2,6,-thiadiazin-4-one]
- inhibition at 5 ppm (Alternaria solani): 54%
- inhibition at 10 ppm (Alternaria solani): 75%
- inhibition at 20 ppm (Alternaria solani): 92%
- inhibition at 40 ppm (Alternaria solani): 100%
- Spore Germination Rating (Cladosporium cucumerinum; 1.0 ppm): 4 (80-100)
- Spore Germination Rating (Cladosporium cucumerinum; 2.5 ppm): 0 (0-10)
- Spore Germination Rating (Cladosporium cucumerinum; 10 ppm): 0 (0-10)
- Spore Germination Rating (Cladosporium cucumerinum; 40 ppm): 0 (0-10)

SMILES: CC(=O)Nc1cccc(Oc2nsnc(Cl)c2=O)c1 [Compound 42, 3-[(3-N--acetylamino)-phenoxy]-5-chloro-4H--1,2,6-thiadiazin-4-one]
- inhibition at 5 ppm (Alternaria solani): 24%
- inhibition at 10 ppm (Alternaria solani): 33%
- inhibition at 20 ppm (Alternaria solani): 52%
- inhibition at 40 ppm (Alternaria solani): 90%
- Spore Germination Rating (Cladosporium cucumerinum; 1.0 ppm): 4 (80-100)
- Spore Germination Rating (Cladosporium cucumerinum; 2.5 ppm): 4 (80-100)
- Spore Germination Rating (Cladosporium cucumerinum; 10 ppm): 3 (60-80)
- Spore Germination Rating (Cladosporium cucumerinum; 40 ppm): 0 (0-10)
